In patent US7994209B2, “3-phenoxymethylpyrrolidine compounds” (Theravance, Inc., priority 2009, dated 2011):
pIC50, pKi: −log10 of the molar value. Marks after values point to notes of the source that are not given here.

Assays:
hSERT [1] = biological target: T1, hSERT (Homo sapiens, UniProt P31645); experiment: fluorescence-based serotonin reuptake inhibition assay (Tsuruda et al. 2010; data indicated by an asterisk); format: cell-based; parameters: expressed in transfected cells; host or cells: HEK-293; settings: fluorescence-based assay (values with asterisk); for IC50: read-out: SERT pIC50 (converted)
hNET [2] = biological target: T2, hNET (Homo sapiens, UniProt P23975); experiment: fluorescence-based norepinephrine reuptake inhibition assay (Tsuruda et al. 2010; data indicated by an asterisk); format: cell-based; parameters: expressed in transfected cells; host or cells: HEK-293; settings: fluorescence-based assay (values with asterisk); for IC50: norepinephrine reuptake inhibition, read-out: NET pIC50 (converted)
hNET [3] = biological target: T2, hNET; experiment: hNET membrane radioligand binding assay (3H-nisoxetine), Assay 1
hSERT [4] = biological target: T1, hSERT; experiment: hSERT membrane radioligand binding assay (3H-citalopram), Assay 1; settings: SERT pKi, hSERT HEK-293 membranes, 1.0 nM 3H-citalopram; values given as lower bounds
hNET [5] = biological target: T2, hNET; experiment: hNET neurotransmitter uptake assay (3H-NE), Assay 2; format: cell-based; parameters: expressed in transfected cells; host or cells: HEK-293; settings: norepinephrine reuptake inhibition, 3H-NE uptake, HEK-293 hNET cells (values without asterisk); read-out: NET pIC50 (converted)
hSERT [6] = biological target: T1, hSERT; experiment: hSERT neurotransmitter uptake assay (3H-5-HT), Assay 2; format: cell-based; parameters: expressed in transfected cells; host or cells: HEK-293; settings: serotonin reuptake inhibition, 3H-5-HT uptake, HEK-293 hSERT cells (values without asterisk); read-out: SERT pIC50 (converted)

T1 sequence (P31645 whole entry): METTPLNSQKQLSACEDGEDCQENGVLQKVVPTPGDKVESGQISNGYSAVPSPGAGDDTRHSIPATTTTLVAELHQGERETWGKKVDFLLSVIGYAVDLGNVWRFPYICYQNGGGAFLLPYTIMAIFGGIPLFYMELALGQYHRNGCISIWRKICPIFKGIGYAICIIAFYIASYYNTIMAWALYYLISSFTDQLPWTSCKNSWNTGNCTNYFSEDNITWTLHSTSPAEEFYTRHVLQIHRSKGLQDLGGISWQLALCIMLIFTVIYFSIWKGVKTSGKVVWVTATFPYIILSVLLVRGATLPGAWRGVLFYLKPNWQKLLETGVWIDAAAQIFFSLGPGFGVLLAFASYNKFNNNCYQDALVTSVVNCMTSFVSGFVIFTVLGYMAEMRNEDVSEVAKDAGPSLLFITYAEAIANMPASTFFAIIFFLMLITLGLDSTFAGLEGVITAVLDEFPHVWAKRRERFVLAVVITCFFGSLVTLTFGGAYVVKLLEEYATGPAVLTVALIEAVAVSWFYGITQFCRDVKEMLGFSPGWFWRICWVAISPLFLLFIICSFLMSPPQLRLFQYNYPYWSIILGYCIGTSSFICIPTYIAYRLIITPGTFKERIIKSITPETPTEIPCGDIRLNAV
T2 sequence (P23975 whole entry): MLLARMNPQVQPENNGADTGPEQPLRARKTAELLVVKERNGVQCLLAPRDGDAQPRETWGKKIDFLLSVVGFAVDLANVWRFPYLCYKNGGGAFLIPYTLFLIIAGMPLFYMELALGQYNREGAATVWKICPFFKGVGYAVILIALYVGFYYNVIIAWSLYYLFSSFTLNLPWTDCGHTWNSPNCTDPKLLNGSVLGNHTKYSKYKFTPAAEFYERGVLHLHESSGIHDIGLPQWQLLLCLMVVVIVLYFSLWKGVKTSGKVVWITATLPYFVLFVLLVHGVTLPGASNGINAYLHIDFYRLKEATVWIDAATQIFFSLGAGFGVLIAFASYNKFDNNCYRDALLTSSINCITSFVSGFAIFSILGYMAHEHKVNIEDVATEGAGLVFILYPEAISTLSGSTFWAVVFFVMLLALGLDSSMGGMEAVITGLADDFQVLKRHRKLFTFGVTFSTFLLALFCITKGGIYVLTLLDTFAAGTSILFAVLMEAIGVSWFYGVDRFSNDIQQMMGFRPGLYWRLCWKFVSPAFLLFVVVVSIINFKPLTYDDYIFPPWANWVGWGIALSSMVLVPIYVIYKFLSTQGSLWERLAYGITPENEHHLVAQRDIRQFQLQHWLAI

SMILES | IC50 (hSERT [1]) [nM] | IC50 (hNET [2]) [nM] | SERT pIC50 (hSERT [1]) | pIC50 (hNET [2]; NET pIC50, norepinephrine reuptake inhibition) | pKi (hNET [3]) | pKi (hSERT [4]) | IC50 (hNET [5]) [nM] | IC50 (hSERT [6]) [nM]
Cc1ccc(OC(C2CCCC2)C2CCNC2)c(Cl)c1 (mixture of isomers) [Example 17, 3-[(2-Chloro-4-methylphenoxy)cyclopentylmethyl]pyrrolidine] | ≤ 10 | ≤ 10 |  |  |  |  |  | 
FC(F)(F)c1c(Cl)cccc1OC(C1CCCC1)C1CCNC1 (single isomer, unassigned) [Example 18-2, 3-[(3-Chloro-2-trifluoromethylphenoxy)cyclopentylmethyl]pyrrolidine] | ≤ 10 | ≤ 100 |  |  |  |  |  | 
FC(F)(F)c1c(Cl)cccc1OC(C1CCCC1)C1CCNC1 (single isomer, unassigned) [Example 18-3, 3-[(3-Chloro-2-trifluoromethylphenoxy)cyclopentylmethyl]pyrrolidine] | ≤ 100 | ≤ 10 |  |  |  |  |  | 
Clc1ccc(OC(C2CCCC2)C2CCNC2)c(Cl)c1 (single isomer, unassigned) [Example 18-4, 3-[Cyclopentyl-(2,4-dichlorophenoxy)methyl]pyrrolidine] | ≤ 10 | ≤ 100 |  |  |  |  |  | 
Clc1ccc(OC(C2CCCC2)C2CCNC2)c(Cl)c1 (single isomer, unassigned) [Example 18-5, 3-[Cyclopentyl-(2,4-dichlorophenoxy)methyl]pyrrolidine] |  | ≤ 10 | ≧8.0* |  |  |  |  | 
CC[C@@H](Oc1ccc(Cl)cc1)[C@H]1CCNC1 [Example 2-4, (S)-3-[(R)-1-(4-Chlorophenoxy)propyl]pyrrolidine] | ≤ 10 | ≤ 100 |  |  |  |  |  | 
CC[C@@H](Oc1ccc(Cl)c(F)c1)[C@H]1CCNC1 [Example 2-6, (S)-3-[(R)-1-(4-Chloro-3-fluorophenoxy)propyl]pyrrolidine] | ≤ 10 | ≤ 100 |  |  |  |  |  | 
CC[C@@H](Oc1ccc(Cl)c(Cl)c1)[C@H]1CCNC1 [Example 2-8, (S)-3-[(R)-1-(3,4-Dichlorophenoxy)propyl]pyrrolidine] | ≤ 10 | ≤ 100 |  |  |  |  |  | 
CC[C@H](Oc1cc(F)cc(Cl)c1)[C@H]1CCNC1 [Example 2-10, (S)-3-[(S)-1-(3-Chloro-5-fluorophenoxy)propyl]pyrrolidine] | ≤ 100 | ≤ 10 |  |  |  |  |  | 
CC[C@@H](Oc1cc(F)cc(Cl)c1)[C@H]1CCNC1 [Example 2-11, (S)-3-[(R)-1-(3-Chloro-5-fluorophenoxy)propyl]pyrrolidine] | ≤ 100 | ≤ 10 |  |  |  |  |  | 
CC[C@@H](Oc1ccc(Cl)c(C)c1)[C@H]1CCNC1 [Example 2-14, (S)-3-[(R)-1-(4-Chloro-3-methylphenoxy)propyl]pyrrolidine] | ≤ 10 | ≤ 100 |  |  |  |  |  | 
CC[C@H](Oc1cc(C)c(Cl)c(C)c1)[C@H]1CCNC1 [Example 2-15, (S)-3-[(S)-1-(4-Chloro-3,5-dimethylphenoxy)propyl]pyrrolidine] | ≤ 10 | ≤ 100 |  |  |  |  |  | 
CC[C@H](Oc1cc(Cl)cc(OC)c1)[C@H]1CCNC1 [Example 2-20, (S)-3-[(S)-1-(3-Chloro-5-methoxyphenoxy)propyl]pyrrolidine] | ≤ 100 | ≤ 100 |  |  |  |  |  | 
CC[C@@H](Oc1ccccc1Cl)[C@H]1CCNC1 [Example 2-24, (S)-3-[(R)-1-(2-Chlorophenoxy)propyl]pyrrolidine] | ≤ 100 | ≤ 100 |  |  |  |  |  | 
CC[C@@H](Oc1cccc(Cl)c1Cl)[C@H]1CCNC1 [Example 2-31, (S)-3-[(R)-1-(2,3-Dichlorophenoxy)propyl]pyrrolidine] | ≤ 10 | ≤ 10 |  |  |  |  |  | 
CC[C@@H](Oc1ccc(Cl)cc1Cl)[C@H]1CCNC1 [Example 2-34, (S)-3-[(R)-1-(2,4-Dichlorophenoxy)propyl]pyrrolidine] | ≤ 10 |  |  | ≥ 7.00 |  |  |  | 
CC[C@H](Oc1c(F)cc(Cl)cc1Cl)[C@H]1CCNC1 [Example 2-35, (S)-3-[(S)-1-(2,4-Dichloro-6-fluorophenoxy)propyl]pyrrolidine] | ≤ 10 | ≤ 10 |  |  |  |  |  | 
CC[C@@H](Oc1c(F)ccc(OC)c1Cl)[C@H]1CCNC1 [Example 2-45, (S)-3-[(R)-1-(2-Chloro-6-fluoro-3-methoxyphenoxy)propyl]pyrrolidine] | ≤ 10 | ≤ 10 |  |  |  |  |  | 

SMILES | IC50 (hSERT [1]) [nM] | IC50 (hNET [2]) [nM] | SERT pIC50 (hSERT [1]) | pIC50 (hNET [2]; NET pIC50, norepinephrine reuptake inhibition) | pKi (hNET [3]) | pKi (hSERT [4]) | IC50 (hNET [5]) [nM] | IC50 (hSERT [6]) [nM]
CC[C@H](Oc1ccc(C)c(F)c1F)[C@H]1CCNC1 [Example 2-51, (S)-3-[(S)-1-(2,3-Difluoro-4-methylphenoxy)propyl]pyrrolidine] | ≤ 10 | ≤ 10 |  |  |  |  |  | 
Cc1cc(O[C@H](C2CC2)[C@H]2CCNC2)c(Cl)cc1Cl [Example 16-73, (S)-3-[(R)cyclopropyl-(2,4-dichloro-5-methylphenoxy)methyl]pyrrolidine] | ≤ 100 |  |  |  | ≥ 5.50 | ≥ 8.00 |  | 
CCc1cc(F)cc(F)c1O[C@@H](C1CC1)[C@H]1CCNC1 [Example 16-81, (S)-3-[(S)cyclopropyl-(2-ethyl-4,6-difluorophenoxy)-methyl]pyrrolidine] |  |  |  |  | ≥ 8.00 | ≥ 8.00 | ≤ 10 | ≤ 100
CSc1cccc(O[C@@H](C2CC2)[C@H]2CCNC2)c1 [Example 16-86, (S)-3-[(S)cyclopropyl-(3-methylsulfanylphenoxy)methyl]pyrrolidine] |  |  |  |  | ≥ 8.00 | ≥ 8.00 | ≤ 10 | ≤ 100
Fc1ccc(O[C@@H](C2CC2)[C@H]2CCNC2)cc1Cl [Example 16-89, (S)-3-[(S)-(3-Chloro-4-fluorophenoxy)cyclopropylmethyl]pyrrolidine] |  |  |  |  | ≥ 8.00 | ≥ 8.00 | ≤ 100 | ≤ 100
Fc1cc(O[C@H](C2CC2)[C@H]2CCNC2)ccc1Cl [Example 16-91, (S)-3-[(R)-(4-Chloro-3-fluorophenoxy)cyclopropylmethyl]pyrrolidine] |  |  |  |  | ≥ 8.00 | ≥ 8.00 | ≤ 10 | ≤ 10
Fc1cc(O[C@@H](C2CC2)[C@H]2CCNC2)ccc1Cl [Example 16-93, (S)-3-[(S)-(4-Chloro-3-fluorophenoxy)cyclopropylmethyl]pyrrolidine] |  |  |  |  | ≥ 8.00 | ≥ 8.00 | ≤ 10 | ≤ 10
Clc1cc(Cl)cc(O[C@@H](C2CC2)[C@H]2CCNC2)c1 [Example 16-96, (S)-3-[(S)cyclopropyl-(3,5-dichlorophenoxy)methyl]pyrrolidine] |  |  |  |  | ≥ 8.00 | ≥ 8.00 | ≤ 10 | ≤ 10
Clc1cc(Cl)cc(O[C@H](C2CC2)[C@H]2CCNC2)c1 [Example 16-97, (S)-3-[(R)cyclopropyl-(3,5-dichlorophenoxy)methyl]pyrrolidine] |  |  |  |  | ≥ 8.00 | ≥ 8.00 | ≤ 10 | ≤ 10
Fc1cc(Cl)cc(O[C@@H](C2CC2)[C@H]2CCNC2)c1 [Example 16-98, (S)-3-[(S)-(3-Chloro-5-fluorophenoxy)cyclopropylmethyl]pyrrolidine] |  |  |  |  | ≥ 8.00 | ≥ 8.00 | ≤ 10 | ≤ 100
Fc1cc(Cl)cc(O[C@H](C2CC2)[C@H]2CCNC2)c1 [Example 16-99, (S)-3-[(R)-(3-Chloro-5-fluorophenoxy)cyclopropylmethyl]pyrrolidine] |  |  |  |  | ≥ 8.00 | ≥ 8.00 | ≤ 10 | ≤ 100
Clc1ccc(O[C@@H](C2CC2)[C@H]2CCNC2)cc1 [Example 16-103, (S)-3-[(S)-(4-Chlorophenoxy)cyclopropylmethyl]pyrrolidine] |  |  |  |  | ≥ 8.00 | ≥ 8.00 | ≤ 10 | ≤ 10
Clc1cccc(Cl)c1O[C@@H](C1CCCCC1)[C@H]1CCNC1 [Example 19, (S)-3-[(S)-Cyclohexyl-(2,6-dichlorophenoxy)methyl]pyrrolidine] |  |  |  |  | ≥ 8.00 | ≥ 8.00 | ≤ 10 | ≤ 100
Fc1cccc(O[C@H](C2CCCCC2)[C@H]2CCNC2)c1Cl [Example 20-5, (S)-3-[(R)-(2-Chloro-3-fluorophenoxy)cyclohexylmethyl]pyrrolidine] |  |  |  |  | ≥ 8.00 | ≥ 8.00 | ≤ 10 | ≤ 10
C=CC[C@H](Oc1cccc(Cl)c1C)[C@H]1CCNC1 [Example 24, (S)-3-[(S)-1-(3-Chloro-2-methylphenoxy)but-3-enyl]-pyrrolidine] |  |  |  |  | ≥ 8.00 | ≥ 8.00 | ≤ 10 | ≤ 10
C=CC[C@H](Oc1ccc(Cl)cc1)[C@H]1CCNC1 [Example 25-1, (S)-3-[(S)-1-(4-Chlorophenoxy)but-3-enyl]pyrrolidine] |  |  |  |  | ≥ 8.00 | ≥ 8.00 | ≤ 10 | ≤ 10
C#CC(Oc1c(Cl)ccc(Cl)c1Cl)[C@H]1CCNC1 (stereo partly drawn) [Example 26, (S)-3-[1(2,3,6-Trichlorophenoxy)prop-2-ynyl]pyrrolidine] |  |  |  |  | ≥ 8.00 | ≥ 8.00 | ≤ 10 | ≤ 100
C#CC(Oc1cccc(Cl)c1Cl)[C@H]1CCNC1 (stereo partly drawn) [Example 27-1, (S)-3-[1-(2,3-Dichlorophenoxy)prop-2-ynyl]pyrrolidine] |  |  |  |  | ≥ 8.00 | ≥ 8.00 | ≤ 10 | ≤ 100
